Measurements taken from PMC11542830, “3-nitropyridine analogues as novel microtubule-targeting agents” (PLOS ONE, 2024).
Read-outs that look alike come from different tables or passages of the source.

Legend:
SK-MEL-28 = experiment: NCI60 5-dose screen, SK-MEL-28; format: cell-based; settings: Homo sapiens, melanoma, Fig 1D, read-out: Log10 GI50 (SK-MEL-28) (converted)
Experimental: (§1) The screening methodology used in the NCI60 Cell 5-Doses screen is described in detail at https://dtp.cancer.gov/discovery_development/nci-60/methodology.htm. Briefly, cells are seeded in 96 well plates at an appropriate density and incubated for 1 day. After 1 day, some of the plates are processed to determine a time zero density. To the remaining plates, compounds are added over a 5-log M concentration range (1 log dilutions from 10^-4M to 10^-8M). Plates are incubated for two additional days, then fixed and stained with sulforhodamine B. Growth inhibition is calculated relative to cells without drug treatment and the time zero control. The GI50 is the concentration of a compound that causes 50% growth inhibition, relative to the no drug control.

IGROV1 = experiment: NCI60 5-dose screen, IGROV1; format: cell-based; settings: Homo sapiens, IGROV-1; ovarian cancer; Fig 1D; read-out: Log10 GI50 (IGROV1) (converted)
Experimental: as §1

PC3 cells = experiment: 3-day MTS cell viability assay, PC3; format: cell-based; settings: Homo sapiens, PC-3, 72 hours, Fig 1C
Experimental: All cancer cell lines (HT-29: colorectal adenocarcinoma, HCT-116: colorectal carcinoma, A549: lung epithelial carcinoma, PC3: prostate adenocarcinoma, Jurkat: acute T-cell leukemia, BC-1: primary effusion lymphoma) and the normal human embryonal lung fibroblast cell line MRC-5 were acquired from the American Type Culture Collection (ATCC). All cell lines were cultured as recommended by the suppliers. Culture media were purchased from Gibco (Thermo Fisher Scientific) and supplemented with 10 to 20% fetal bovine serum (HyClone, GE Healthcare Life Sciences) and 20–25 μg/mL gentamicin (Gibco, Thermo Fisher Scientific). […]
Cell viability in cancer cell lines treated with compound was measured in a 3-day MTS cell proliferation assay using the CellTiter 96 AQueous Non-Radioactive Cell Proliferation Assay reagent (Promega) according to the manufacturer’s instructions. Absorbance was read at 490 nm on a SaFire II microplate reader (Tecan). CC50 values were calculated by fitting the obtained MTS cell viability data in GraphPad Prism using a 4-parameter log–based fit for inhibitors. Apoptosis induction and cell death upon compound treatment in PBMC was measured using the Alexa Fluor 488 Annexin V/Dead Cell Apoptosis Kit (Thermo Fisher Scientific), with readout on a FACSCanto II flow cytometer (BD Biosciences). […] The compounds were evaluated in duplo in two independent experiments.

NCI-H322M = experiment: NCI60 5-dose screen, NCI-H322M; format: cell-based; settings: Homo sapiens, non-small cell lung cancer, Fig 1D, read-out: Log10 GI50 (NCI-H322M) (converted)
Experimental: as §1

[1] = test system: NCI-60 Human Tumor Cell Lines; experiment: NCI-60 Human Tumor Cell Lines Screen (whole panel); format: cell-based; settings: NCI-60 panel; for GI50: Homo sapiens, mean across all cell lines
Experimental: as §1

[2] = Pharmacokinetics and tissue distribution in mice; format: in vivo; settings: CD1 mice, IV bolus 20 mg/kg
Experimental: Female CD1 mice were purchased from Harlan (Harlan Netherlands BV) and 7–8 weeks old mice were injected intravenously (IV) with 20 mg/kg 4AZA2891 formulated at 2 mg/ml as described above. […] The plasma, obtained after centrifugation of the heparinized blood for 2 min at 13,000 g, and the harvested tissues, after homogenization with Ultra-Turrax, were stored at-80°C until analysis by LC-MS/MS.
Every plasma and tissue sample was spiked with internal standard followed by the addition of 4 volumes of methanol. The samples were kept for 30 min on ice prior to centrifugation 10 min at 12,000 RPM in order to remove precipitated proteins. The supernatant was analyzed for the presence of 4AZA2891 using LC/MS/MS (Finnigan LCQ advantage Max (ion trap) mass spectrometer with Surveyor HPLC System (Thermo Finnigan)).
As standard for the bioanalysis, 4AZA2891 was diluted stepwise. Each dilution was added to blank control plasma or to blank control tissue homogenate additionally spiked with internal standard, giving rise to standard curves from 5 to 5,000 ng/ml. The lower limit of quantification was 5 to 10 ng/ml depending on the tissues.
Non-compartmental pharmacokinetic analysis was performed on the plasma concentration-time data. PK Solutions 2.0 software (Summit Research Services) was used to calculate the PK parameters.

MOLT-4 = experiment: NCI60 5-dose screen, MOLT-4; format: cell-based; settings: Homo sapiens, leukemia, Fig 1D, read-out: Log10 GI50 (MOLT-4) (converted)
Experimental: as §1

HCC-2998 = experiment: NCI60 5-dose screen, HCC-2998; format: cell-based; settings: Homo sapiens, colon cancer, Fig 1D, read-out: Log10 GI50 (HCC-2998) (converted)
Experimental: as §1

U251 = experiment: NCI60 5-dose screen, U251; format: cell-based; settings: Homo sapiens, U-251; CNS cancer; Fig 1D; read-out: Log10 GI50 (U251) (converted)
Experimental: as §1

HOP-62 = experiment: NCI60 5-dose screen, HOP-62; format: cell-based; settings: Homo sapiens, non-small cell lung cancer, Fig 1D, read-out: Log10 GI50 (HOP-62) (converted)
Experimental: as §1

SK-OV-3 = experiment: NCI60 5-dose screen, SK-OV-3; format: cell-based; settings: Homo sapiens, ovarian cancer, Fig 1D, read-out: Log10 GI50 (SK-OV-3) (converted)
Experimental: as §1

OVCAR-8 = experiment: NCI60 5-dose screen, OVCAR-8; format: cell-based; settings: Homo sapiens, ovarian cancer, Fig 1D, read-out: Log10 GI50 (OVCAR-8) (converted)
Experimental: as §1

T-47D = experiment: NCI60 5-dose screen, T-47D; format: cell-based; settings: Homo sapiens, T47D; breast cancer; Fig 1D; read-out: Log10 GI50 (T-47D) (converted)
Experimental: as §1

[3] = Fig 1D, read-out: mean GI50 (log10) (converted)
[4] = read-out: mean GI50 across the panel

| Structure (SMILES) | GI50 (SK-MEL-28) [nM] | GI50 (IGROV1) [nM] | IC50 (PC3 cells) [nM] | GI50 (NCI-H322M) [nM] | GI50 [1, 3] [nM] | GI50 [1, 4] [nM] | GI50 (MOLT-4) [nM] | GI50 (HCC-2998) [nM] | GI50 (U251) [nM] | GI50 (HOP-62) [nM] | GI50 (SK-OV-3) [nM] | GI50 (OVCAR-8) [nM] | other results |
| --- | --- | --- | --- | --- | --- | --- | --- | --- | --- | --- | --- | --- | --- |
| Cc1cc(C)cc(Nc2ccc([N+](=O)[O-])c(NCCN3CCOCC3)n2)c1 [Compound 4AZA2891, 6-(3,5-dimethylanilino)-2-(2-morpholinoethylamino)-3-nitropyridine] | 2750 | 49 | 11.9 | 81.3 | 35.5 | 35.5 | 56.2 | 28.8 | 30.9 | 30.2 | 58.9 | 37.2 | tissue distribution [2]: distributes readily to all tissues analyzed including the brain; half-life ([2]; female, mouse, different tissues (homogenates), tissues, read-out: elimination half-lives in the different tissues): 18 to 48 min; AUC(0-t) ([2]; female, mouse, plasma, read-out: AUClast in plasma): 1290 ng·h/mL; Kp ([2]; female, mouse, brain, read-out: ratio of brain AUC over plasma AUC): 2.7; Kp ([2]; female, mouse, kidney, read-out: ratio of kidney AUC over plasma AUC): 2.6; half-life ([2]; female, mouse, plasma, read-out: elimination half-life (converted)): 42 min; clearance ([2]; female, mouse, plasma, read-out: systemic clearance (converted)): 257 mL/min/kg; Vd ([2]; female, mouse, plasma, read-out: volume of distribution at steady state): 5.7 L/kg |
| Cc1ccnc(Nc2ccc([N+](=O)[O-])c(NCCN3CCOCC3)n2)c1 [Compound 4AZA2996, N^6-(4-methylpyridin-2-yl)-N^2-(2-morpholinoethyl)-3-nitropyridine-2,6-diamine] | 12600 | 57.5 | 9.5 | 46.8 | 21.9 | 21.9 | 35.5 | 17 | < 10 | < 10 | < 10 | 20 | number of cell lines with GI50 lower than 10 nM ([1]; out of the cell lines tested): 31 of the 50; GI50 (T-47D): 26300 nM |
